As a reminder, the viability is a read-out of living cells in per cent, often relative to untreated cells.

For assay [1], the system named is BFTC905 human bladder cancer cell line. Briefly: MTT cell viability, BFTC905 cells. Type of assay: cell-based. To be noted: 24 hours, in comparison with Iressa. On the procedure:
(§1) The above cell lines were plated in 96-well plates at a density of 1×10^4 cells/well for 16 to 20 hours. […] After drug treatment, the cell lines were washed with phosphate-buffered saline (hereinafter referred to PBS), and were replaced with fresh complete RPMI-1640 medium for 2 days. Thereafter, the medium was replaced and the cells were incubated with 0.5 mg/ml of 3-(4,5-dimethylthiazol-2-yl)-2,5-diphenyltetrazolium bromide reagent (hereinafter referred to MTT, Sigma Chemical Co., St. Louis, Mo.) in complete RPMI-1640 medium for 4 hours. The viable cells converted MTT to formazan that generates a blue-purple color when dissolved in dimethyl sulfoxide (hereinafter referred to DMSO). The intensity of formazan was measured at 565 nm using a plate reader (VERSAmax, Molecular Dynamics, Sunnyvale, Calif.). The relative percentage of cell viability was calculated by dividing the absorbance of treated cells by that of the control in each experiment.

Assay [2] has as its system RKO human rectal cancer cell line. As to the kind of experiment: MTT cell viability, RKO cells. The assay is classed as cell-based. As to conditions: 24 hours, in comparison with Iressa. Here is the method: as §1
The next assay deals with A549 cell line. Briefly: MTT cell viability, A549 cell line. As to conditions: Homo sapiens, A549 cell line, 24 hours, MTT. Type of assay: cell-based, human. Here is the method: as §1
After drug treatment, the cells were washed with PBS and replaced with fresh complete RPMI-1640 medium for 2 days. Thereafter, the medium was replaced and the cells were incubated with 0.5 mg/mL of MTT reagent (Sigma Chemical Co., St. Louis, Mo.) in complete RPMI-1640 medium for 4 hours. The intensity of formazan was measured at 565 nm using a plate reader (VERSAmax, Molecular Dynamics, Sunnyvale, Calif.). The relative percentage of cell viability was calculated by dividing the absorbance of treated cells by that of the control in each experiment.

Take `COC(=O)CCC(=O)N1CCN(CCCOc2cc3c(Nc4ccc(F)c(Cl)c4)ncnc3cc2OC)CC1` [Analogue-1, methyl 4-(4-(3-(4-(3-chloro-4-fluorophenylamino)-7-methoxyquinazolin-6-yloxy)propyl)piperazin-1-yl)-4-oxobutanoate]: the “toxicity effect on BFTC905 cells” value in assay [1] is “more effective on cell death of RKO cells and BFTC905 cells than Iressa”. The “toxicity effect on RKO cells” value in assay [2] was “more effective on cell death of RKO cells and BFTC905 cells than Iressa”. In the assay with A549 cell line, this compound registered a viability at 10 µM of 89.1%, a viability at 20 µM of 85.6%, a viability at 40 µM of 75.9% and a viability at 60 µM of 74.4%. Besides, the viability at 80 µM in the assay with A549 cell line amounted to 75.9%.

With `COc1cc2ncnc(Nc3ccc(F)c(Cl)c3)c2cc1OCCCN1CCN(C(=O)CCC(=O)O)CC1` [Analogue-2, 4-(4-(3-(4-(3-chloro-4-fluorophenylamino)-7-methoxyquinazolin-6-yloxy)propyl)piperazin-1-yl)-4-oxobutanoic acid], the “toxicity effect on BFTC905 cells” value in assay [1] is on record as “minor toxicity effect on BFTC905 cells”. Moreover, the “toxicity effect on RKO cells” value in assay [2] is “no toxicity effect on RKO cells”.

For the compound `CCCCCCCCCCCOC(=O)CCC(=O)N1CCN(CCCOc2cc3c(Nc4ccc(F)c(Cl)c4)ncnc3cc2OC)CC1` [Analogue-17, undecyl 4-(4-(3-(4-(3-chloro-4-fluorophenylamino)-7-methoxyquinazolin-6-yloxy)propyl)piperazin-1-yl)-4-oxobutanoate], in the assay with A549 cell line, the viability at 10 µM was determined as 93.4%, the viability at 20 µM came out at 85.2%, the viability at 40 µM came to 12% and the viability at 60 µM was 3.9%. In addition, in the assay on A549 cell line, the viability at 80 µM came to 2.8%.

In the assay with A549 cell line, `CCCCCCCCCCCCCOC(=O)CCC(=O)N1CCN(CCCOc2cc3c(Nc4ccc(F)c(Cl)c4)ncnc3cc2OC)CC1` [Analogue-19, tridecyl 4-(4-(3-(4-(3-chloro-4-fluorophenylamino)-7-methoxyquinazolin-6-yloxy)propyl)piperazin-1-yl)-4-oxobutanoate] showed a viability at 10 µM of 93.7%, a viability at 20 µM of 93.8%, a viability at 40 µM of 71.1% and a viability at 60 µM of 20.6%. This compound also yielded a viability at 80 µM in the assay with A549 cell line of 6.8%.

As to `CCCCCCCCCCCCCCOC(=O)CCC(=O)N1CCN(CCCOc2cc3c(Nc4ccc(F)c(Cl)c4)ncnc3cc2OC)CC1` [Analogue-20, tetradecyl 4-(4-(3-(4-(3-chloro-4-fluorophenylamino)-7-methoxyquinazolin-6-yloxy)propyl)piperazin-1-yl)-4-oxobutanoate], in the assay with A549 cell line, the viability at 10 µM stood at 100%, the viability at 20 µM stood at 92.3%, the viability at 40 µM came out at 88.6% and the viability at 60 µM was determined as 84.9%. The same compound showed a viability at 80 µM in the assay on A549 cell line of 77.2%.

In the assay with A549 cell line, `CCCCCCCCCCCCCCCOC(=O)CCC(=O)N1CCN(CCCOc2cc3c(Nc4ccc(F)c(Cl)c4)ncnc3cc2OC)CC1` [Analogue-21, pentadecyl 4-(4-(3-(4-(3-chloro-4-fluorophenylamino)-7-methoxyquinazolin-6-yloxy)propyl)piperazin-1-yl)-4-oxobutanoate] displayed a viability at 10 µM of 92%, a viability at 20 µM of 91.2%, a viability at 40 µM of 85.5% and a viability at 60 µM of 81.6%. The viability at 80 µM with A549 cell line was 81.1%.

As to `CCCCCCCCCCCCCCCCOC(=O)CCC(=O)N1CCN(CCCOc2cc3c(Nc4ccc(F)c(Cl)c4)ncnc3cc2OC)CC1` [Analogue-22, hexadecyl 4-(4-(3-(4-(3-chloro-4-fluorophenylamino)-7-methoxyquinazolin-6-yloxy)propyl)piperazin-1-yl)-4-oxobutanoate], in the assay on A549 cell line, the viability at 10 µM came out at 97.7%, the viability at 20 µM is 91.7%, the viability at 40 µM was 82.6% and the viability at 60 µM amounted to 80%. The same compound yielded a viability at 80 µM in the assay with A549 cell line of 74.3%.

For `CCCCCCCCCCCCCCCCCOC(=O)CCC(=O)N1CCN(CCCOc2cc3c(Nc4ccc(F)c(Cl)c4)ncnc3cc2OC)CC1` [Analogue-23, heptadecyl 4-(4-(3-(4-(3-chloro-4-fluorophenylamino)-7-methoxyquinazolin-6-yloxy)propyl)piperazin-1-yl)-4-oxobutanoate], in the assay on A549 cell line, the viability at 10 µM was 95.7%, the viability at 20 µM was determined as 97.2%, the viability at 40 µM was 85.2% and the viability at 60 µM was determined as 84.1%. Also, the viability at 80 µM in the assay with A549 cell line worked out at 83.2%.

Take `CCCCCCCCCCCCCCCCCCOC(=O)CCC(=O)N1CCN(CCCOc2cc3c(Nc4ccc(F)c(Cl)c4)ncnc3cc2OC)CC1` [Analogue-24, octadecyl 4-(4-(3-(4-(3-chloro-4-fluorophenylamino)-7-methoxyquinazolin-6-yloxy)propyl)piperazin-1-yl)-4-oxobutanoate]: in the assay on A549 cell line, the viability at 10 µM came to 94.8%, the viability at 20 µM turned out to be 90.5%, the viability at 40 µM is 91% and the viability at 60 µM was 87.2%. In the assay on A549 cell line, this compound registered a viability at 80 µM of 86.7%.

Take `CCCCCCCCCCCCCCCCCCCOC(=O)CCC(=O)N1CCN(CCCOc2cc3c(Nc4ccc(F)c(Cl)c4)ncnc3cc2OC)CC1` [Analogue-25, nonadecyl 4-(4-(3-(4-(3-chloro-4-fluorophenylamino)-7-methoxyquinazolin-6-yloxy)propyl)piperazin-1-yl)-4-oxobutanoate]: in the assay with A549 cell line, the viability at 10 µM worked out at 94.5%, the viability at 20 µM was 94.8%, the viability at 40 µM stood at 92.3% and the viability at 60 µM is 89.3%. In addition, the viability at 80 µM in the assay on A549 cell line was found to be 88.4%.

In the assay with A549 cell line, `CCCCCCCCCCCCCCCCCCCCOC(=O)CCC(=O)N1CCN(CCCOc2cc3c(Nc4ccc(F)c(Cl)c4)ncnc3cc2OC)CC1` [Analogue-26, icosyl 4-(4-(3-(4-(3-chloro-4-fluorophenylamino)-7-methoxyquinazolin-6-yloxy)propyl)piperazin-1-yl)-4-oxobutanoate] registered a viability at 10 µM of 94%, a viability at 20 µM of 90.8%, a viability at 40 µM of 87.1% and a viability at 60 µM of 86.9%. For the same compound, the viability at 80 µM in the assay on A549 cell line came out at 85.2%.

Source of the values: US9512086B2, “Compound for promoting apoptosis of cancer cells and a pharmaceutical composition containing the same and uses thereof” (National Chiao Tung University, priority 2014, dated 2016).
